Source: ChEMBL document CHEMBL1157329, “Granulatamides A and B, cytotoxic tryptamine derivatives from the soft coral Eunicella granulata” (2006)

Legend:
Assay type in all cases: functional
DU-145 = assay: Cytotoxicity against human DU145 cells by SRB assay
LNCaP = assay: Cytotoxicity against human LNcaP cells by SRB assay
K562 = assay: Cytotoxicity against human K562 cells by SRB assay
SK-OV-3 = assay: Cytotoxicity against human SK-OV-3 cells by SRB assay
SK-MEL-28 = assay: Cytotoxicity against human SK-MEL-28 cells by SRB assay
SK-BR-3 = assay: Cytotoxicity against human SK-BR3 cells by SRB assay
A549 = assay: Cytotoxicity against human A549 cells by SRB assay
PANC-1 = assay: Cytotoxicity against human PANC1 cells by SRB assay
LoVo [1] = assay: Cytotoxicity against human doxorubicin-resistant LOVO cells by SRB assay
[2] = Cytotoxicity against human HMEC1 cells by SRB assay; conditions: HMEC-1
LoVo [3] = assay: Cytotoxicity against human LOVO cells by SRB assay
[4] = Cytotoxicity against human ecteinascidin-743-resistant IGROV-ET cells by SRB assay
[5] = Cytotoxicity against human IGROV cells by SRB assay
HT-29 = assay: Cytotoxicity against human HT29 cells by SRB assay
HeLa [6] = assay: Cytotoxicity against human aplidin-resistant HeLa cells by SRB assay
HeLa [7] = assay: Cytotoxicity against human HeLa cells by SRB assay

Row | Compound | GI50 (DU-145) | GI50 (LNCaP) | GI50 (K562) | GI50 (SK-OV-3) | GI50 (SK-MEL-28) | GI50 (SK-BR-3) | GI50 (A549) | GI50 (PANC-1) | GI50 (LoVo [1]) | GI50 [2] | GI50 (LoVo [3]) | GI50 [4] | GI50 [5] | GI50 (HT-29) | GI50 (HeLa [6]) | GI50 (HeLa [7])
1 | CCCCCCCCC/C(C)=C\C(=O)NCCc1c[nH]c2ccccc12 [GRANULATAMIDE A] | 1.7 µM | 4.7 µM | 6.8 µM | 11.6 µM | 3.9 µM | 2.7 µM | 6.7 µM | 10.4 µM | 12 µM | 6.2 µM | 10.5 µM | 12.7 µM | 6.7 µM | 2.2 µM | – | –
2 | CCCCCCC/C(C)=C/C(C)=C\C(=O)NCCc1c[nH]c2ccccc12 [GRANULATAMIDE B] | 7.7 µM | 3.5 µM | 4.3 µM | – | 10.6 µM | 6 µM | 8.9 µM | 6.5 µM | 10 µM | – | 8.6 µM | 6.7 µM | 8.2 µM | 13.8 µM | 9 µM | 9.7 µM
